Measured values published in patent US20120129884A1, “PHOTOCHEMOTHERAPEUTIC HETEROCYCLIC AGENTS HAVING ANTIPROLIFERATIVE AND ANTINEOPLASTIC ACTIVITY” (UNIVERSITA DEGLI STUDI DI PADOVA, priority 2009, published 2012).

How the values were obtained:
[1] = system: chronic myeloid leukaemia (K-562); experiment: Phototoxicity after UV-A irradiation, MTT test; type: cell-based, human; settings: mean ± SEM
Description: (§1) The evaluation of phototoxic activity was carried out in some human tumour cell lines: T-cell leukaemia (Jurkat), chronic myeloid leukaemia (K-562), colon adenocarcinoma (LoVo) and breast adenocarcinoma (MCF-7). Cellular survival experiments were carried out without irradiation to verify an eventual toxicity of photosensitizer in the dark, and then after two times of irradiation (10 and 15 min of UV-A, which correspond to 2.5 and 3.75 J/cm^2, respectively), using lamps which emit mainly at 365 nm. Cell survival was checked after 72 h of compound incubation or after 72 h from UVA irradiation by Mosmann's MTT reduction test (3-[4,5-dimethyltiazol-2yl] 2,5-diphenyl tetrazolium bromide), (T. Mossman, Rapid colorimetric assay for cellular growth and survival: application to proliferation and cytotoxicity assays, J. Immunol. Meths. 1983, 65, 55-63). […] In Table 2, there are GI50 values, that is the compound concentration required for 50% cell survival, for each cell line and for every time of irradiation.

[2] = system: breast adenocarcinoma (MCF-7); experiment: Phototoxicity after UV-A irradiation, MTT test; type: cell-based, human; settings: mean ± SEM
Description: as §1

[3] = system: colon adenocarcinoma (LoVo); experiment: Phototoxicity after UV-A irradiation, MTT test; type: cell-based, human; settings: mean ± SEM
Description: as §1

[4] = system: T-cell leukaemia (Jurkat); experiment: Phototoxicity after UV-A irradiation, MTT test; type: cell-based, human; settings: mean ± SEM
Description: as §1

[5] = system: human tumour cell lines (Jurkat, K-562, LoVo, MCF-7); experiment: Phototoxicity / dark toxicity in all tested human tumour cell lines, MTT test; type: cell-based; settings: after UVA irradiation
Description: as §1

[6] = system: plasmid (pBR322) DNA; experiment: Plasmid strand break / DNA photodamage experiments (Fpg, Endo III); type: biochemical; settings: pBR322, irradiated, Fpg and Endo III
Description: After having assessed a weak affinity toward this macromolecule in the dark by such spectroscopic techniques as linear dichroism and fluorimetric titrations, some plasmid (pBR322) strand break experiments were carried out to check an eventual DNA photodamage by compounds. The formation of open circular or linear DNA from a supercoiled plasmid DNA was monitored by the separation of the three forms using agarose gel horizontal electrophoresis. Beside the formation of frank strand breaks, oxidative damages to purine and pyrimidine bases were also evaluated, incubating the irradiated mixture with the repair enzyme Fpg (Formamidopyrimidine glycosylase) and Endo III (Endonuclase III), respectively. (B. Epe, M. Pflaum, S. Boiteux, DNA damage induced by photosensitizers in cellular and cell-free systems, Mut. Res. 1993, 299, 135-145; T. A. Ciulla, J. R. Van Camp, E. Rosenfeld, I. Kochevar, Photosensitization of single-strand breaks in pBR322 DNA by Rose Bengal, Photochem. Photobiol. 1989, 49, 293-298).

[7] = system: Jurkat cells; experiment: Mitochondrial membrane potential by JC-1 probe after irradiation; type: cell-based, human; settings: JC-1, 2 h from irradiation, with respect to control
Description: Other two tests were performed to have more information about the mechanism of action and to evaluate which organelles were involved in this process. […] (X. Wang, The expanding role of mitochondria in apoptosis, Gen. Develop. 2001, 15, 2922-2933). An eventual mitochondrial involvement in apoptosis induction was evaluated by such a parameter of mitochondrial dysfunction as the loss of mitochondrial membrane potential. Mitochondrial membrane potential of Jurkat cells was monitored by JC-1 probe after their irradiation in the presence of 9j, 9k and 9m (S. Salvioli, A. Ardizzoni, C. Franceschi, A. Cossarizza, JC-1, but not DiOC6(3) or rhodamine 123, is a reliable fluorescent probe to assess […] changes in intact cells: implications for studies on mitochondrial functionality during apoptosis, FEBS Lett. 1997, 411, 77-82).

[8] = Homo sapiens, K562, light or radiation study, 72 h, K-562, UV-A 2.5 J/cm^2, 72 h after irradiation
[9] = Homo sapiens, K562, light or radiation study, 72 h, K-562, UV-A 3.75 J/cm^2, 72 h after irradiation
[10] = Homo sapiens, MCF7, light or radiation study, 72 h, MCF-7, UV-A 2.5 J/cm^2, 72 h after irradiation
[11] = Homo sapiens, MCF7, light or radiation study, 72 h, MCF-7, UV-A 3.75 J/cm^2, 72 h after irradiation
[12] = Homo sapiens, light or radiation study, 72 h, UV-A 2.5 J/cm^2, 72 h after irradiation
[13] = Homo sapiens, light or radiation study, 72 h, UV-A 3.75 J/cm^2, 72 h after irradiation
[14] = K-562, UV-A 2.5 J/cm^2, 72 h after irradiation
[15] = K-562, UV-A 3.75 J/cm^2, 72 h after irradiation
[16] = MCF-7, UV-A 2.5 J/cm^2, 72 h after irradiation
[17] = MCF-7, UV-A 3.75 J/cm^2, 72 h after irradiation
[18] = UV-A 2.5 J/cm^2, 72 h after irradiation
[19] = UV-A 3.75 J/cm^2, 72 h after irradiation

`Cc1ccc(Cn2ccc3c2-c2[nH]c(=O)c(S(=O)(=O)c4ccccc4)cc2CC3)cc1` [Compound 9g, 1-(p-Methyl-benzyl)-7-(phenylsulfonyl)-1,4,5,9-tetrahydro-8H-pyrrolo[3,2-h]quinolin-8-one] was tested, and the GI50 [1, 8] was 2.7 ± 0.2 µM, the GI50 [1, 9] was 2.4 ± 0.1 µM and the GI50 [2, 10] was 3.8 ± 0.5 µM. For the same compound, the GI50 [2, 11] was 2.4 ± 0.2 µM, the GI50 [3, 12] was 2.7 ± 0.1 µM and the GI50 [3, 13] was 2.3 ± 0.2 µM. For the same compound, the GI50 [4, 12] was 1.6 ± 0.1 µM and the GI50 [4, 13] was 1.2 ± 0.2 µM.
Compound `COc1ccc(Cn2ccc3c2-c2[nH]c(=O)c(S(=O)(=O)c4ccccc4)cc2CC3)cc1` [Compound 9h, 1-(p-Methoxy-benzyl)-7-(phenylsulfonyl)-1,4,5,9-tetrahydro-8H-pyrrolo[3,24]quinolin-8-one] has a GI50 [1, 14] of 3.1 ± 0.4 µM, a GI50 [1, 15] of 2.5 ± 0.2 µM and a GI50 [2, 16] of 4.2 ± 0.7 µM. For the same compound, the GI50 [2, 17] was 1.8 ± 0.1 µM, the GI50 [3, 18] was 2.8 ± 0.3 µM and the GI50 [3, 19] was 2 ± 0.2 µM. The GI50 [4, 18] was 1.6 ± 0.2 µM and the GI50 [4, 19] was 1.2 ± 0.2 µM.
In the case of `CCOC(=O)c1cc2c([nH]1)-c1[nH]c(=O)c(S(=O)(=O)c3ccccc3)cc1CC2` [Compound 9i, Ethyl 7-(phenylsulfonyl)-1,4,5,9-tetrahydro-8H-pyrrolo[3,2-h]quinolin-8-one-2-carboxylate], the GI50 [1, 8] is reported as 6.1 ± 0.2 µM, the GI50 [1, 9] is reported as 5.4 ± 0.6 µM and the GI50 [2, 10] is reported as 6.1 ± 0.2 µM. For the same compound, the GI50 [2, 11] was 4.3 ± 0.7 µM, the GI50 [3, 12] was 5.5 ± 0.2 µM and the GI50 [3, 13] was 4.6 ± 0.4 µM. It also gave a GI50 [4, 12] of 3.5 ± 0.4 µM and a GI50 [4, 13] of 2.5 ± 0.2 µM.
With `CCOC(=O)c1cc2c(n1C)-c1[nH]c(=O)c(S(=O)(=O)c3ccccc3)cc1CC2` [Compound 9j, Ethyl 1-methyl-7-(phenylsulfonyl)-1,4,5,9-tetrahydro-8H-pyrrolo[3,2-h]quinolin-8-one-2-carboxylate] the “GI50 (phototoxic)” value [5] was “submicromolar”, the GI50 [1, 8] was 1 ± 0.1 µM and the GI50 [1, 9] was 0.9 ± 0.1 µM. It also gave a GI50 [2, 10] of 1.2 ± 0.1 µM, a GI50 [2, 11] of 1 ± 0.1 µM and a GI50 [3, 12] of 1.1 ± 0.1 µM. For the same compound, the GI50 [3, 13] was 1 ± 0.1 µM, the GI50 [4, 12] was 0.7 ± 0.1 µM and the GI50 [4, 13] was 0.5 ± 0.1 µM. The “DNA photodamage (photocleavage, oxidative damages in DNA bases)” value (from here on “DNA photodamage”) [6] was “do not induce DNA photodamage”.
With `CCOC(=O)c1cc2c(n1Cc1ccccc1)-c1[nH]c(=O)c(S(=O)(=O)c3ccccc3)cc1CC2` [Compound 9k, Ethyl 1-benzyl-7-(phenylsulfonyl)-1,4,5,9-tetrahydro-8H-pyrrolo[3,2-h]quinolin-8-one-2-carboxylate] the “GI50 (phototoxic)” value [5] was “submicromolar”, the “cell percentage with collapsed mitochondrial potential” value [7] was “increase of cell percentage with collapsed mitochondrial potential” and the GI50 [1, 8] was 0.9 ± 0.1 µM. For the same compound, the GI50 [1, 9] was 0.6 ± 0.1 µM, the GI50 [2, 10] was 0.9 ± 0.1 µM and the GI50 [2, 11] was 0.8 ± 0.1 µM. For the same compound, the GI50 [3, 12] was 0.9 ± 0.1 µM, the GI50 [3, 13] was 0.8 ± 0.1 µM and the GI50 [4, 12] was 0.8 ± 0.1 µM. The GI50 [4, 13] was 0.6 ± 0.1 µM and the “DNA photodamage” value [6] was “do not induce DNA photodamage”.
Work on `CCOC(=O)c1cc2c(n1Cc1ccc(C)cc1)-c1[nH]c(=O)c(S(=O)(=O)c3ccccc3)cc1CC2` [Compound 9l, Ethyl 1-(p-methyl-benzyl)-7-(phenylsulfonyl)-1,4,5,9-tetrahydro-8H-pyrrolo[3,2-h] quinolin-8-one-2-carboxylate] yielded a GI50 [1, 8] of 1.2 ± 0.3 µM, a GI50 [1, 9] of 1 ± 0.1 µM and a GI50 [2, 10] of 1.7 ± 0.3 µM. The GI50 [2, 11] was 1.5 ± 0.2 µM, the GI50 [3, 12] was 1.6 ± 0.2 µM and the GI50 [3, 13] was 1 ± 0.2 µM. The GI50 [4, 12] was 1.5 ± 0.2 µM and the GI50 [4, 13] was 1.2 ± 0.1 µM.
With `CCOC(=O)c1cc2c(n1Cc1ccc(OC)cc1)-c1[nH]c(=O)c(S(=O)(=O)c3ccccc3)cc1CC2` [Compound 9m, Ethyl 1-(p-methoxy-benzyl)-7-(phenylsulfonyl)-1,4,5,9-tetrahydro-8H-pyrrolo[3,24] quinolin-8-one-2-carboxylate] the “GI50 (phototoxic)” value [5] was “submicromolar”, the “cell percentage with collapsed mitochondrial potential” value [7] was “increase of cell percentage with collapsed mitochondrial potential” and the GI50 [1, 14] was 1 ± 0.1 µM. It also gave a GI50 [1, 15] of 0.9 ± 0.1 µM, a GI50 [2, 16] of 1.6 ± 0.2 µM and a GI50 [2, 17] of 1.4 ± 0.2 µM. It also gave a GI50 [3, 18] of 1.1 ± 0.1 µM, a GI50 [3, 19] of 1 ± 0.2 µM and a GI50 [4, 18] of 0.8 ± 0.1 µM. For the same compound, the GI50 [4, 19] was 0.7 ± 0.1 µM and the “DNA photodamage” value [6] was “do not induce DNA photodamage”.
